“And” between values parts separate entries of the source, which are not always exact repeats. Identical values can stand only once. Like-named read-outs stand apart in the source and are kept apart here. Non-standard residues stand in square brackets, D forms with d. Residues, ends and D or L forms follow the SMILES beside them. *: point of attachment. boroGlu = O=C(O)CC[C@H](N*)B(O)O; Gly(cPr) = N[C@H](C(=O)O)C1CC1
Key:
His6-CylA-27-412 = molecular target: T1, His6-CylA-27-412 (Enterococcus faecalis, UniProt A0A2P6AWB8); assay: Analytical size exclusion chromatography (pro-domain release); conditions: increasing inhibitor:CylA ratio
T1 sequence (A0A2P6AWB8 27-412): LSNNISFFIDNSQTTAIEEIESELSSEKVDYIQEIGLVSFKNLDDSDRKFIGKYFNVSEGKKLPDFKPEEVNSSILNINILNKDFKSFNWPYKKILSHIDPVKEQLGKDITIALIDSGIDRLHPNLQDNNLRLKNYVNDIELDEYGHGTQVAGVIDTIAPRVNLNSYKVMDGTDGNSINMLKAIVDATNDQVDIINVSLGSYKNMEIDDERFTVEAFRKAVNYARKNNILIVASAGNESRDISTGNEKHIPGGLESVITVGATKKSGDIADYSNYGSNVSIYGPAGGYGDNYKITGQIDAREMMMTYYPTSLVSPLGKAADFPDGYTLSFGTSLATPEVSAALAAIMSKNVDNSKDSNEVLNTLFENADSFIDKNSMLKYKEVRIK
Description: To gain more insight into this phenomenon, His6-CylA-27-412 that had undergone complete autolytic cleavage as determined by SDS-PAGE and that had been purified by size exclusion chromatography (SEC), was analyzed by analytical SEC (aSEC) in the presence of inhibitor 9. […] This assignment was supported by SDS-PAGE analysis of the eluted fractions (Supplementary Fig. 8). […] The SEC retention time data is inconsistent with CylA forming higher order oligomers, ruling out a DegP-like activation mechanism.
Samples of His6-CylA-27-412 prepared as described in ‘Expression and purification of His6-CylA-27-412’ were diluted to a concentration of 50 μM and injected (20 μL injection volume) into an Agilent 1260 infinity analytical high-performance liquid chromatography system equipped with a Biozen™ 1.8 μm, 300 × 4.6 mm LC column pre-equilibriated with aSEC buffer (100 mM NaHPO4, 200 mM NaCl, pH = 7.4). Absorbance at 220 nm was monitored. A flow rate of 0.25 mL/min was used for all experiments. Retention time was correlated to protein size using a Gel Filtration Standard (Biorad) and samples of carbonic anhydrase isolated from bovine erythrocytes (Sigma Aldrich) and albumin isolated from bovine serum (Sigma Aldrich).

[1] = test system: E. faecalis FA2-2 (pAM714), E. faecalis ATCC 29212; format: cell-based, Enterococcus faecalis; conditions: for growth curve reading, ATCC 29212 +9: E. faecalis ATCC 29212 with 9; for growth curve reading, ATCC 29212 +9 / growth curve reading, pAM714 +9: trials 1-3; for growth curve reading, pAM714 +9: E. faecalis pAM714 with 9
Description: To a 96-well plate, BHI media was added containing 200 µM of inhibitor 9. An overnight culture of E. faecalis was diluted to a concentration of 10^6 CFU/mL and an equal volume of this culture was added to the well containing inhibitor. A growth control was prepared by combining the diluted bacterial cells with an equal volume of sterile BHI. A sterility control well was filled with sterile BHI to the same volume. The 96-well plate was transferred to a plate reader preheated to 37 °C and the plate was shaken continuously. The OD600 of each well was measured over the course of 24 h. Uncorrected OD600 values were plotted as a function of time. […]
or B) E. faecalis ATCC 29212. Wells containing B HI media were inocul ated with 1 x 106 C F U / m L of E. faecalis .I nhibitor 9 was added to achieve a well concentration of 100 µM. A growth control well not containing 9 an d a sterile control not co ntaining bacteria were s et up on the same plate.
The plate was incubated with shaking at 37 ̊C and the OD600 was measured every 30 min for 18h.
This experiment was conducted on three biological samples (n = 3). Error bars represent the standard of devi ation and are c enter ed at the me an. Source data are p rovided as a Source Data file. […]

CC(=O)NCC(=O)N[C@@H](CC(=O)O)C(=O)N[C@H](C(=O)N[C@@H](CCC(N)=O)C(=O)N[C@@H](C)C(=O)N[C@@H](CCC(=O)O)B(O)O)C1CC1 [Compound 9] (Ac-GD[Gly(cPr)]QA-boroGlu)
conversion of CylA-96-412°His6-27-95 to the 12.1 min peak (pro-domain release), aSEC (His6-CylA-27-412): transition appeared complete once a stoichiometric equivalent of inhibitor was added | growth of C+ E. faecalis ([1]; 100 µM, FA2-2 (pAM714) or ATCC 29212): did not impact the growth | growth curve reading, ATCC 29212 +9 ([1]; time 0 h): 0.1154 and 0.116 and 0.0922 | growth curve reading, ATCC 29212 +9 ([1]; time 0.5 h): 0.0985 and 0.1041 and 0.0924 | growth curve reading, ATCC 29212 +9 ([1]; time 1 h): 0.1003 and 0.1065 and 0.0941 | growth curve reading, ATCC 29212 +9 ([1]; time 4 h): 0.3147 and 0.3334 and 0.308 | growth curve reading, ATCC 29212 +9 ([1]; time 4.5 h): 0.4828 and 0.507 and 0.4713 | growth curve reading, ATCC 29212 +9 ([1]; time 5 h): 0.7061 and 0.7328 and 0.6866 | growth curve reading, ATCC 29212 +9 ([1]; time 6 h): 0.8111 and 0.8333 and 0.7942 | growth curve reading, ATCC 29212 +9 ([1]; time 6.5 h): 0.8209 and 0.8395 and 0.8063 | growth curve reading, ATCC 29212 +9 ([1]; time 7 h): 0.8266 and 0.8438 and 0.8065 | growth curve reading, ATCC 29212 +9 ([1]; time 8 h): 0.8109 and 0.8262 and 0.7852 | growth curve reading, ATCC 29212 +9 ([1]; time 8.5 h): 0.7898 and 0.8142 and 0.7555 | growth curve reading, ATCC 29212 +9 ([1]; time 9 h): 0.756 and 0.7924 and 0.7138 | growth curve reading, ATCC 29212 +9 ([1]; time 9.5 h): 0.7216 and 0.7609 and 0.6743 | growth curve reading, ATCC 29212 +9 ([1]; time 10 h): 0.6983 and 0.7557 and 0.6452 | growth curve reading, ATCC 29212 +9 ([1]; time 10.5 h): 0.6599 and 0.7472 and 0.6197 | growth curve reading, ATCC 29212 +9 ([1]; time 11 h): 0.651 and 0.7261 and 0.5927 | growth curve reading, ATCC 29212 +9 ([1]; time 12 h): 0.5996 and 0.6855 and 0.5551 | growth curve reading, ATCC 29212 +9 ([1]; time 12.5 h): 0.6003 and 0.6798 and 0.5403 | growth curve reading, ATCC 29212 +9 ([1]; time 13 h): 0.594 and 0.6632 and 0.5265 | growth curve reading, ATCC 29212 +9 ([1]; time 13.5 h): 0.5622 and 0.6648 and 0.515 | growth curve reading, ATCC 29212 +9 ([1]; time 14 h): 0.5532 and 0.6505 and 0.5057 | growth curve reading, ATCC 29212 +9 ([1]; time 14.5 h): 0.547 and 0.6403 and 0.4947 | growth curve reading, ATCC 29212 +9 ([1]; time 15 h): 0.5331 and 0.6268 and 0.5432 | growth curve reading, ATCC 29212 +9 ([1]; time 15.5 h): 0.5632 and 0.6227 and 0.5048 | growth curve reading, ATCC 29212 +9 ([1]; time 16 h): 0.5401 and 0.6149 and 0.5008 | growth curve reading, ATCC 29212 +9 ([1]; time 16.5 h): 0.5274 and 0.6109 and 0.5013 | growth curve reading, ATCC 29212 +9 ([1]; time 17 h): 0.5274 and 0.5922 and 0.4935 | growth curve reading, ATCC 29212 +9 ([1]; time 17.5 h): 0.5197 and 0.5739 and 0.5382 | growth curve reading, ATCC 29212 +9 ([1]; time 18 h): 0.5155 and 0.5767 and 0.5324 | growth curve reading, pAM714 +9 ([1]; time 0 h): 0.0946 and 0.0915 and 0.093 | growth curve reading, pAM714 +9 ([1]; time 0.5 h): 0.0971 and 0.0931 and 0.0938 | growth curve reading, pAM714 +9 ([1]; time 1 h): 0.099 and 0.095 and 0.0956 | growth curve reading, pAM714 +9 ([1]; time 4 h): 0.1926 and 0.195 and 0.1996 | growth curve reading, pAM714 +9 ([1]; time 4.5 h): 0.2491 and 0.255 and 0.2626 | growth curve reading, pAM714 +9 ([1]; time 5 h): 0.3385 and 0.3521 and 0.3631 | growth curve reading, pAM714 +9 ([1]; time 6 h): 0.6065 and 0.6337 and 0.65 | growth curve reading, pAM714 +9 ([1]; time 6.5 h): 0.7256 and 0.7465 and 0.7496 | growth curve reading, pAM714 +9 ([1]; time 7 h): 0.7199 and 0.7425 and 0.7485 | growth curve reading, pAM714 +9 ([1]; time 8 h): 0.7208 and 0.7411 and 0.7548 | growth curve reading, pAM714 +9 ([1]; time 8.5 h): 0.7272 and 0.7466 and 0.7599 | growth curve reading, pAM714 +9 ([1]; time 9 h): 0.7255 and 0.7488 and 0.7571 | growth curve reading, pAM714 +9 ([1]; time 9.5 h): 0.7184 and 0.7445 and 0.7497 | growth curve reading, pAM714 +9 ([1]; time 10 h): 0.708 and 0.736 and 0.7402 | growth curve reading, pAM714 +9 ([1]; time 10.5 h): 0.6972 and 0.7258 and 0.7305 | growth curve reading, pAM714 +9 ([1]; time 11 h): 0.6856 and 0.717 and 0.7218 | growth curve reading, pAM714 +9 ([1]; time 12 h): 0.6642 and 0.6996 and 0.7054 | growth curve reading, pAM714 +9 ([1]; time 12.5 h): 0.6586 and 0.6909 and 0.6988 | growth curve reading, pAM714 +9 ([1]; time 13 h): 0.6446 and 0.6836 and 0.6924 | growth curve reading, pAM714 +9 ([1]; time 13.5 h): 0.6425 and 0.6781 and 0.6878 | growth curve reading, pAM714 +9 ([1]; time 14 h): 0.6308 and 0.6721 and 0.6814 | growth curve reading, pAM714 +9 ([1]; time 14.5 h): 0.6266 and 0.6677 and 0.6764 | growth curve reading, pAM714 +9 ([1]; time 15 h): 0.6144 and 0.6613 and 0.6745 | growth curve reading, pAM714 +9 ([1]; time 15.5 h): 0.6099 and 0.6586 and 0.6678 | growth curve reading, pAM714 +9 ([1]; time 16 h): 0.6043 and 0.6548 and 0.6659 | growth curve reading, pAM714 +9 ([1]; time 16.5 h): 0.6012 and 0.6523 and 0.6623 | growth curve reading, pAM714 +9 ([1]; time 17 h): 0.5956 and 0.6495 and 0.6597 | growth curve reading, pAM714 +9 ([1]; time 17.5 h): 0.5906 and 0.6489 and 0.6599 | growth curve reading, pAM714 +9 ([1]; time 18 h): 0.5896 and 0.647 and 0.6581

— paper PMC12304293, “Combatting virulent gut bacteria by inhibiting the biosynthesis of a two-component lanthipeptide toxin” (Nature Communications, 2025)
